Columns and labels:
MDAMB-231 cells = experiment: WST-1 cell viability assay, cancer cells; conditions: 25-150 μg/mL DOX, 24 hours and 72 hours
[1] = tested on: Murine breast cancer (4T1) cells; experiment: In vivo study in tumor-bearing mice; conditions: equivalent doxorubicin dose 7.5 mg/kg i.v. on alternate day, 4T1 tumor Balb/c mice
Method: All animal experiments were done with the approval of Institutional Animal Ethical Committee (IAEC), National Institute of Immunology, New Delhi. Murine breast cancer (4T1) cells ([…]) in 200 μL of FBS were injected subcutaneously into the right flanks of 5-week-old female Balb/c mice. Mice were randomized into four groups (6 mice in each group) after they developed a tumor of ˜75 mm^3. […] Tumor measurements were made every alternate day using a digital caliper, and tumor volume was calculated using the formula L×B2/2 where L and B are the length and breadth of the tumor. Each mouse was weighed before dosing and weight loss with respect to dosing. The survival study was continued until the last mouse was found live in all the groups. […] FIG. 9B represents an example of the weight change (%) of Balb/c mice vs injection day when treated as above.

Compound: COc1cccc2c1C(=O)c1c(O)c3c(c(O)c1C2=O)C[C@@](O)(C(=O)CO)C[C@@H]3O[C@H]1C[C@H](N)[C@H](O)[C@H](C)O1.Cl [DOX, doxorubicin HCl]
- percentage proliferation (cytotoxicity) (MDAMB-231 cells): equally cytotoxic regardless the cell line used
- number of doses after which all animals of the group died [1]: 4 doses

— patent US20220289903A1, “POLYMER AND COMPOSITION FROM RENEWABLE SOURCE” (ÅBO AKADEMI UNIVERSITY, priority 2019, published 2022)
